Entries after “also recorded” stand apart in the source; their conditions may differ.
How the values were obtained:
[1] = test system: fetal lung explants (E12.5); assay: Eight-day fetal lung explant culture, histology and tubulin-IV immunostaining (final lung differentiation); format: cell-based, mouse
Experimental: FIG. 7: The effect of Wnt3A on the final lung differentiation. The lung explants were cultured for eight days in the presence of 0 ng/ml (Panels A and B), 10 ng/ml (Panel C), 50 ng/ml (Panel D), 250 ng/ml (Panel E) and 500 ng/ml Wnt3A (Panel F). After embedding, histological sections were stained with a tubulin-IV antibody to mark ciliated bronchial epithelium. In addition, the sections were counterstained with Haematoxylin and Alcian Blue, which stained the mucus secreted from the bronchial epithelium and the cartilage associated with the tracheal epithelium.
The primary antibodies used for the immunohistochemical detection was for beta-catenin; anti beta-catenin IgG, mAb, clone 14 from BD-Transduction Laboratories, for tubulin-beta mAb clone TBN05 (Tub2.1) from Neomarkers, for BrdU; anti-Bromodeoxyuridine (BrdU), mAb clone ZBU30 from Zymed Laboratories Inc.
To further determine the effect of Wnt3A upon the development and differentiation of the lung over time, fetal lung explants of isolated E12.5 were cultured with 0, 10, 50, 250, and 500 ng/ml Wnt3A for eight days. Two hours before the fixation of the lung explants, BrdU was added to the culture medium, which is incorporated in newly synthesized DNA of active proliferating cells. After the different time points, the lung explants were processed for histological analysis and immuno staining of marker genes.

[2] = test system: Wnt-signaling pathway in normal human fetal lung fibroblast cell line HFL-1; assay: TopFlash/FopFlash reporter assay, HFL-1; format: cell-based; conditions: HFL-1, 20 hours
Experimental: (§1) Primary mouse fibroblasts isolated from E12.5 lung explants, the human epithelial lung carcinoma cell line A549 cells (ATCC CCL-185), the human epithelial lung adenocarcinoma cell line Calu-3 (ATCC_HTB-55) and the normal human fetal lung fibroblast cell line HFL-1 cells (ATCC—153) were cultured in 96-well plates and transfected with the TopFlash and FopFlash reporter constructs using lipofectamine 2000 according to the manufacturer's instructions. As an internal control for transfection efficiency, a constitutive renilla luciferase reporter (Promega) was cotransfected. The cells were transfected with the above-mentioned reporter constructs and simultaneously treated with different concentrations of Wnt3A for 20 hours, after which the cells were lysed and luciferase expression was measured using a Berthold luminometer for two seconds (V. Korinek et al., Mol. Cell. Biol. 18:1248-1256, 1998). […]
(§2) In order to analyze if Wnt3A is able to activate the Wnt signal-transduction pathway in humans, we stimulated three different cell lines from human origin with Wnt3A and measured the response with the TopFlash/FopFlash reporter assay. The three human lung-derived cell lines analyzed were the lung epithelial carcinoma cell line A549 (FIG. 9B), the normal lung fibroblast line HFL-1 (FIG. 9C), and the epithelial adenocarcinoma cell line calu-3 (FIG. 9D).

[3] = test system: mesenchyme and epithelium of fetal lung explants; assay: TUNEL assay on sections of fetal lung explants; format: cell-based, mouse
Experimental: The induction of apoptosis was detected using the “In Situ Cell Death Detection Kit,” of Roche (Cat. No. 11 684 817 001) according to the manufacturer's instructions.
To further analyze the effect of Wnt3a upon apoptosis and proliferation, lung explants were cultured for four days in the presence of 0, 4, 20, 100, 250, 500, 750 and 1000 ng/ml. In order to identify whether after Wnt3A treatment cells are viable and active, proliferating BrdU was added to the culture medium, which is incorporated in newly synthesized DNA of active proliferating cells, two hours before the fixation of the lung explants. […] To better investigate this effect, histological sections were analyzed with the TUNEL assay, which detects fragmented DNA present in apoptotic cells (material and methods).

[4] = test system: mesenchyme and epithelium of fetal lung explants; assay: PCNA immunohistochemistry (proliferation) on lung explants; format: cell-based, mouse
Experimental: Detection of the PCNA epitopes was carried out by treating the sections with di-aminobenzidine (DAB) for 15 minutes.
The antibody against PCNA was purchased from Zymed Laboratories Inc. (cat nr. 18-0110). The secondary conjugate used was from Jackson Laboratories, Inc. (catalog nr. 115-056-062).

[5] = test system: Wnt-signaling pathway in human epithelial lung carcinoma cell line A549; assay: TopFlash/FopFlash reporter assay, A549; format: cell-based; conditions: A549, 20 hours
Experimental: as §1, §2

[6] = test system: Wnt-signaling pathway in human epithelial lung adenocarcinoma cell line Calu-3; assay: TopFlash/FopFlash reporter assay, Calu-3; format: cell-based; conditions: calu-3, 20 hours
Experimental: as §1, §2

[7] = test system: Wnt-signaling pathway in primary lung fibroblasts isolated from a E12.5 fetal lung; assay: TopFlash/FopFlash reporter assay, primary fetal lung cells; format: cell-based, mouse; conditions: 0.4 to 500 ng/ml, 20 hours
Experimental: Primary mouse fibroblasts isolated from E12.5 lung explants, the human epithelial lung carcinoma cell line A549 cells (ATCC CCL-185), the human epithelial lung adenocarcinoma cell line Calu-3 (ATCC_HTB-55) and the normal human fetal lung fibroblast cell line HFL-1 cells (ATCC—153) were cultured in 96-well plates and transfected with the TopFlash and FopFlash reporter constructs using lipofectamine 2000 according to the manufacturer's instructions. As an internal control for transfection efficiency, a constitutive renilla luciferase reporter (Promega) was cotransfected. The cells were transfected with the above-mentioned reporter constructs and simultaneously treated with different concentrations of Wnt3A for 20 hours, after which the cells were lysed and luciferase expression was measured using a Berthold luminometer for two seconds (V. Korinek et al., Mol. Cell. Biol. 18:1248-1256, 1998). The Lipofectamine 2000 transfection reagent was purchased from Invitrogen Life Technologies. The wild-type beta-catenin/TCF reporter plasmid (TOPFLASH) and mutated reporter plasmid (FOPFLASH) were obtained from Upstate Biotechnology (NY, USA).
The dissociated lungs were co-transfected with the TopFlash reporter construct that is activated by nuclear beta-catenin transcription complexes. […]

Wnt3a
effect on lung development (morphology) ([1]; 10 ng/ml, up to eight days): profound effects on lung development | flattening of the primordial epithelium to the type-I cell ([1]; 250 ng/ml, eight days): almost completely suppressed | branching ([1]; 500 ng/ml, after one day): inhibitory effect upon branching | branching ([1]; 500 ng/ml, eight days): still severely suppressed | differentiation of distal epithelium (alveolar and bronchiolar compartments) ([1]; 500 ng/ml, eight days): completely inhibited | proximal structures (tubulin-IV, Haematoxylin and Alcian Blue) ([1]; 500 ng/ml, eight days): consist completely of proximal structures; also recorded: abundance of bronchial epithelium, mucus and cartilage | alveolarization of the distal epithelium / flattened epithelium (alveolar-type-I cells) ([1]; 10 to 250 ng/ml (to 500 ng/ml in FIG. 7), eight days): decreasing alveolarization of the distal epithelium; also recorded: loss of flattened epithelium (alveolar-type-I cells) with increasing dosage | TopFlash/FopFlash reporter response [2]: respond to Wnt3A in a dosage-dependent manner; also recorded: strong induction of the Wnt-signaling pathway | TUNEL-positive epithelial cells ([3]; 1000 ng/ml, four days): almost none of the epithelial cells were TUNEL positive | apoptosis in the mesenchyme (TUNEL) ([3]; 1000 ng/ml, four days): massive induction of apoptosis in the mesenchyme | mesenchymal cells picnotic and TUNEL positive ([3]; 1000 ng/ml, four days): ~100% | TUNEL-positive epithelial cells ([3]; 1000 ng/ml, four days, listed as Wnt3A): unaffected epithelium | concentration at which TUNEL-positive (apoptotic) cells increase ([3]; four days of culture): above 100 ng/ml | PCNA staining in the bronchial epithelium ([4]; 500 ng/ml, two days): marked overall increase in the intensity and frequency of PCNA staining; also recorded: elevated PCNA staining | PCNA staining (proliferation) of epithelium and mesenchyme ([4]; 1000 ng/ml, five days): the epithelium was still proliferating whereas most of the mesenchymal cells were inactive or dead; also recorded: strong reduction in proliferation of the mesenchyme versus the epithelium | PCNA staining ([4]; 1000 ng/ml, two days): reduces the PCNA staining below the control situation | PCNA staining ([4]; 2000 and 4000 ng/ml, two days): completely negative | concentration at which proliferation is absent / inhibited ([4]; lung explants): above 2000 ng/ml | TopFlash/FopFlash reporter response [5]: respond to Wnt3A in a dosage-dependent manner; also recorded: strong induction of the Wnt-signaling pathway | TopFlash/FopFlash reporter response [6]: respond to Wnt3A in a dosage-dependent manner; also recorded: strong induction of the Wnt-signaling pathway | TopFlash versus FopFlash reporter response [7]: clear Wnt3A dosage-dependent response
